According to paper PMC10175918 (Communications Biology, 2023):
Read-outs that look alike come from different tables or passages of the source.

Assays:
Experiment in all cases: TGFα-shedding assay-based GPCR screening with chimeric Gα subunit proteins
Assay type in all cases: cell-based
348 GPCRs [1] = target: T1, 348 GPCRs (Homo sapiens, UniProt O43194)
T1 construct: expressed in transfected cells; host or cells: HEK293A
T1 sequence (O43194 1-453): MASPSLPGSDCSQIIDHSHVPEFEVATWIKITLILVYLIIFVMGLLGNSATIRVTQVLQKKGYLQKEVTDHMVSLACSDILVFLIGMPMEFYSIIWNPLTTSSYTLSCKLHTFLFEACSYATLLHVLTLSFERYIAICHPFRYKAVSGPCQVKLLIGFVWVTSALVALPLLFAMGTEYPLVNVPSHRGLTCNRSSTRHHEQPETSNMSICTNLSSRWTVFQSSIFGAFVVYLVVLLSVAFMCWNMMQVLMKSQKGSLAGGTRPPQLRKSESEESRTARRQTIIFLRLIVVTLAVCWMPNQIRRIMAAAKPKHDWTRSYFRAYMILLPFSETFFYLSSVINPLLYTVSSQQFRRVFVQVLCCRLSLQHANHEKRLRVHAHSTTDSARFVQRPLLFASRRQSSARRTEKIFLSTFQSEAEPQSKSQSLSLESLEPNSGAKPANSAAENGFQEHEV

348 GPCRs [2] = target: T2, 348 GPCRs (Homo sapiens, UniProt O75473); settings: 10µM, Favipiravir 100μM
T2 construct: expressed in transfected cells; host or cells: HEK293A
T2 sequence (O75473 22-907): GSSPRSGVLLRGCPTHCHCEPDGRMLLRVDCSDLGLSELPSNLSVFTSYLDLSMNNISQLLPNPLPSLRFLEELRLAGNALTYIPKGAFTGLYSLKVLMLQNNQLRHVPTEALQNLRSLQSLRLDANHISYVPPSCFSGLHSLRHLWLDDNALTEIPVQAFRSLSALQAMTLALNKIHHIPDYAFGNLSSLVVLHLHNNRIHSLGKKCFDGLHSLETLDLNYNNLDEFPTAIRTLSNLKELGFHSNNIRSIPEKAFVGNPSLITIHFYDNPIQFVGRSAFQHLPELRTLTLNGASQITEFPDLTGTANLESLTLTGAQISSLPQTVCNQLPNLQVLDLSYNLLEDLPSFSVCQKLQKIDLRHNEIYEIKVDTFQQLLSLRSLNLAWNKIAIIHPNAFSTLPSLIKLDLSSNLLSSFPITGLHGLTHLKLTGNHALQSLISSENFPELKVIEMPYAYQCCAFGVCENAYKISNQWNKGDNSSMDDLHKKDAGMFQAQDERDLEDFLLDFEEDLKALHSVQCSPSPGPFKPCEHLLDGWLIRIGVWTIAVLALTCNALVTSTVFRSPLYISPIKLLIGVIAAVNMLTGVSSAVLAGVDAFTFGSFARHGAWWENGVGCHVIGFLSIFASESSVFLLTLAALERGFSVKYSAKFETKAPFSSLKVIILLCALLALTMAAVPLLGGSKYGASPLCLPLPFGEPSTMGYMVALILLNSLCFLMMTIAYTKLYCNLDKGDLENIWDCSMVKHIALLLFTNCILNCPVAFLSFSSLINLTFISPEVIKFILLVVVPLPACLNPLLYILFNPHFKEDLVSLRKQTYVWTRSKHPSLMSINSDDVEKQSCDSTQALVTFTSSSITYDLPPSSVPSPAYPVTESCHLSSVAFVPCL

348 GPCRs [3] = target: T3, 348 GPCRs (Homo sapiens, UniProt P30542); settings: 10µM, Favipiravir 100μM
T3 sequence (P30542 1-326): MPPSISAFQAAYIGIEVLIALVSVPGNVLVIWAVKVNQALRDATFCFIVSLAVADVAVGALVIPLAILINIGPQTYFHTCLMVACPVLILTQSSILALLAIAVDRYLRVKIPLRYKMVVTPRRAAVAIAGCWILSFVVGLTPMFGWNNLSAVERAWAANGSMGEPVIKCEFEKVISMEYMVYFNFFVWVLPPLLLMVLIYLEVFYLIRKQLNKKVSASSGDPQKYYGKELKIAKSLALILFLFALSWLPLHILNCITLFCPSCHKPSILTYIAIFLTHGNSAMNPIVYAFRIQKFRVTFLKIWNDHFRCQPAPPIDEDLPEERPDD

348 GPCRs [4] = target: T4, 348 GPCRs (Homo sapiens, UniProt Q8TDU6); settings: 10µM, Favipiravir 100μM
T4 construct: expressed in transfected cells; host or cells: HEK293A
T4 sequence (Q8TDU6 1-330): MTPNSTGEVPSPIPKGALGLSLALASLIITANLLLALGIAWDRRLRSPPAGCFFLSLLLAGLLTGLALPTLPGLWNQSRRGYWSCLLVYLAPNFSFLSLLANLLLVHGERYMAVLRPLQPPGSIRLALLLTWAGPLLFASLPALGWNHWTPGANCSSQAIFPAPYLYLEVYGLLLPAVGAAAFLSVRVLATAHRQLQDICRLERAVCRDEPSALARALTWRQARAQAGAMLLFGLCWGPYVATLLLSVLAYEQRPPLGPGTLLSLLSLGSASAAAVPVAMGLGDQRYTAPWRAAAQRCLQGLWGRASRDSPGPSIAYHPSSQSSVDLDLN

348 GPCRs [5] = target: T5, 348 GPCRs (Homo sapiens, UniProt Q9BY21); settings: 10µM, Favipiravir 100μM
T5 construct: expressed in transfected cells; host or cells: HEK293A

348 GPCRs [6] = target: T6, 348 GPCRs (Homo sapiens, UniProt Q9NQ84); settings: 10µM, Favipiravir 100μM
T6 construct: expressed in transfected cells; host or cells: HEK293A

[7] = GPCR GPR39 (G Protein-Coupled Receptor 39), read-out: % GPCR activation compared to TPA
[8] = LGR5 (leucine-rich repeat containing G protein-coupled receptor 5), read-out: % GPCR activation compared to TPA
[9] = ADORA1 (adenosine A1 receptor), read-out: % GPCR activation compared to TPA
[10] = GPBA (G protein-coupled bile acid receptor 1), read-out: % GPCR activation compared to TPA
[11] = GPR87 (G Protein-Coupled Receptor 87), read-out: % GPCR activation compared to TPA
[12] = GPRC5C (G protein-coupled receptor, family C, group 5, member C), read-out: % GPCR activation compared to TPA
[13] = read-out: % GPCR activation compared to TPA, GPCR GPR39 (G Protein-Coupled Receptor 39)
[14] = read-out: % GPCR activation compared to TPA, LGR5 (leucine-rich repeat containing G protein-coupled receptor 5)
[15] = read-out: % GPCR activation compared to TPA, ADORA1 (adenosine A1 receptor)
[16] = read-out: % GPCR activation compared to TPA, GPBA (G protein-coupled bile acid receptor 1)
[17] = read-out: % GPCR activation compared to TPA, GPR87 (G Protein-Coupled Receptor 87)
[18] = read-out: % GPCR activation compared to TPA, GPRC5C (G protein-coupled receptor, family C, group 5, member C)

T5 sequence (Q9BY21 whole entry): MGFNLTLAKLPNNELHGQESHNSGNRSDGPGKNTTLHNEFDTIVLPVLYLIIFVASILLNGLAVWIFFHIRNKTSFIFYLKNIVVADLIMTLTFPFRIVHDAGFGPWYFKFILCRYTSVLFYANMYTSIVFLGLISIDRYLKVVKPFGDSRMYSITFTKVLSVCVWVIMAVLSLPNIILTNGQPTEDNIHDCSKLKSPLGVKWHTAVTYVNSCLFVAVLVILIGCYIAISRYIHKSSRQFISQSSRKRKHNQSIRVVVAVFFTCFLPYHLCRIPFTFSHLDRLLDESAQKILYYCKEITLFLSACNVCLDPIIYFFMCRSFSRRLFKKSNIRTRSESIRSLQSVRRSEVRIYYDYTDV
T6 sequence (Q9NQ84 24-441): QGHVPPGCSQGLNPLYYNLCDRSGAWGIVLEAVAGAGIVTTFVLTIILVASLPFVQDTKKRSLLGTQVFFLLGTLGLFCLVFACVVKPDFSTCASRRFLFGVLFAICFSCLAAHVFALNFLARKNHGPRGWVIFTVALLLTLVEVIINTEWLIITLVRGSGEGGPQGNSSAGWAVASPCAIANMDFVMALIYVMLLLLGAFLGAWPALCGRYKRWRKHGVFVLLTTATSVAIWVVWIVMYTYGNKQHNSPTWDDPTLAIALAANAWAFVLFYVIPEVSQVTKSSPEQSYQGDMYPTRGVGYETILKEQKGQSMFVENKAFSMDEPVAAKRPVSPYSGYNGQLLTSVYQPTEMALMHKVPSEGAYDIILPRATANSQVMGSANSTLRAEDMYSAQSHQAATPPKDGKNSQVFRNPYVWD

SMILES | activation at 10 µM (348 GPCRs [1]; [7]) [%] | activation at 100 µM (348 GPCRs [2]; [8]) [%] | activation at 100 µM (348 GPCRs [3]; [9]) [%] | activation at 10 µM (348 GPCRs [4]; [10]) [%] | activation at 100 µM (348 GPCRs [5]; [11]) [%] | activation at 100 µM (348 GPCRs [6]; [12]) [%] | activation at 10 µM (348 GPCRs [1]; [13]) [%] | activation at 100 µM (348 GPCRs [2]; [14]) [%] | activation at 100 µM (348 GPCRs [3]; [15]) [%] | activation at 10 µM (348 GPCRs [4]; [16]) [%] | activation at 100 µM (348 GPCRs [5]; [17]) [%] | activation at 100 µM (348 GPCRs [6]; [18]) [%] | activation at 100 µM (348 GPCRs [1]; GPCR GPR39 (G Protein-Coupled Receptor 39), 100μM, read-out: % GPCR activation compared to TPA) [%]
N#C[C@@]1(c2ccc3c(N)ncnn23)O[C@H](CO)[C@@H](O)[C@H]1O [GS441524] | -9.02 | -2.87 | 0.705 | -1.79 | -3.93 | -1 | – | – | – | – | – | – | –
CCC(CC)COC(=O)[C@H](C)N[P@](=O)(OC[C@H]1O[C@@](C#N)(c2ccc3c(N)ncnn23)[C@H](O)[C@@H]1O)Oc1ccccc1 [remdesivir] | – | – | – | – | – | – | 2.25 | 12.4 | 3.8 | -1.26 | -0.159 | -1.81 | –
CC(C)OC(=O)[C@H](C)N[P@](=O)(OC[C@H]1O[C@@H](n2ccc(=O)[nH]c2=O)[C@](C)(F)[C@@H]1O)Oc1ccccc1 [sofosbuvir] | – | – | – | – | – | – | -4.93 | -3.95 | 1.9 | -0.805 | 2.98 | -0.501 | –
NC(=O)c1nc(F)cnc1O [favipiravir, 6-fluoro-3-hydroxy-2-pyrazinecarboxamide] | – | -2.31 | -0.249 | 0.241 | -4.67 | -1.31 | – | – | – | – | – | – | -6.36
CC(C)C(=O)OC[C@H]1O[C@@H](n2ccc(NO)nc2=O)[C@H](O)[C@@H]1O [molnupiravir] | -11.5 | -3.75 | -3.9 | -1.97 | 0.11 | -0.707 | – | – | – | – | – | – | –
